Test results from PMC7830115, “Design, Synthesis, Molecular Docking, and Tumor Resistance Reversal Activity Evaluation of Matrine Derivative with Thiophene Structure” (Molecules, 2021).

How the values were obtained:
[1] = tested on: CNE2; assay: MTT cytotoxicity assay, CNE2; assay type: cell-based; settings: Homo sapiens, CNE-2, 72 h, mean ± SD
Procedure: (§1) Prior to determining the combined inhibitory effects against NPC CDDP-resistance cells, the cytotoxicity effects of these 8 derivatives were evaluated against three NPC cell lines (CNE2, HONE1, and HK-1) and CDDP resistance cell line (CNE2/CDDP) by using MTT (3-(4,5-dimethyl-2-thiazolyl)-2,5-diphenyl-2-H-tetrazolium bromide) assays. […] Moreover, a liver normal cell LO2 was involved to evaluate the selectivity of these 8 compounds by using MTT assays.
(§2) Nasopharyngeal carcinoma cells (CNE2, HONE1, and CNE2/CDDP) were purchased from Shanghai Aulu Biological Technologh Co., Ltd. (Shanghai, China). HK-1 cell was purchased from Shanghai Shunran Biological Technologh Co., Ltd. CNE2, HONE1, and HK-1 were cultured in DMEM medium supplemented with 10% fetal bovine serum, 1% penicillin-streptomycin. CDDP-resistant NPC cell CNE2/CDDP was cultured in DMEM medium supplemented with CDDP to sustain its drug resistance. Cell viability was detected using the MTT assay. All the 8 derivatives were resolved with DMSO to make a storage solution at 1 M, and CDDP was resolved with phosphate buffer saline (PBS) to make a storage solution at 100 mM. The maximum concentrations of these 8 derivatives and CDDP used in MTT assays were set as 1 mM and 100 µM diluted with DMEM medium, respectively. Medium with 0.1% DMSO was set as control. To begin, an initial MTT assay was conducted to evaluate the cytotoxicity of 3a~3h with a dose range of 50, 100, 200, 400, and 800 µM. Then, a more precise dose range was set to calculate the IC50 of each compound (For 3a~3e: 50, 100, 200, 400, 600, and 800 µM; for 3f~3h: 12.5, 25, 50, 100, 200, and 400 µM). Then, 5000 cells were seeded in a 96-well plate for each well and treated with respective compounds at different concentrations for 72 h following additional treatment with MTT for 2~3 h. Then, MTT was removed and 150 µL DMSO was added into each well and the absorption values were measured at 490 nm using a SpectraMAX M5plate reader (Silicon Valley, CA, USA).

[2] = tested on: HONE1; assay: MTT cytotoxicity assay, HONE1; assay type: cell-based; settings: Homo sapiens, HONE1, 72 h, mean ± SD
Procedure: as §1, §2

[3] = tested on: HK-1; assay: MTT cytotoxicity assay, HK-1; assay type: cell-based; settings: HK-1, 72 h, mean ± SD
Procedure: as §1, §2

[4] = tested on: CNE2/CDDP; assay: MTT cytotoxicity assay, CNE2/CDDP; assay type: cell-based; settings: Homo sapiens, CNE-2, 72 h, cisplatin resistant cell line, mean ± SD
Procedure: as §1, §2

[5] = tested on: LO2; assay: MTT cytotoxicity assay, LO2 normal liver cell; assay type: cell-based; settings: Homo sapiens, L02, 72 h, mean ± SD
Procedure: as §1, §2

[6] = tested on: NPC cell lines (CNE2, HONE1, and HK-1) and CDDP resistance cell line (CNE2/CDDP); assay: MTT cytotoxicity, summary over NPC cell lines and CDDP resistance cell line; assay type: cell-based; settings: range over CNE2, HONE1, HK-1 and CNE2/CDDP, read-out: IC50, anti-proliferative effects
Procedure: as §1
(§3) Nasopharyngeal carcinoma cells (CNE2, HONE1, and CNE2/CDDP) were purchased from Shanghai Aulu Biological Technologh Co., Ltd. (Shanghai, China). HK-1 cell was purchased from Shanghai Shunran Biological Technologh Co., Ltd. CNE2, HONE1, and HK-1 were cultured in DMEM medium supplemented with 10% fetal bovine serum, 1% penicillin-streptomycin. CDDP-resistant NPC cell CNE2/CDDP was cultured in DMEM medium supplemented with CDDP to sustain its drug resistance. Cell viability was detected using the MTT assay. All the 8 derivatives were resolved with DMSO to make a storage solution at 1 M, and CDDP was resolved with phosphate buffer saline (PBS) to make a storage solution at 100 mM. […] Then, MTT was removed and 150 µL DMSO was added into each well and the absorption values were measured at 490 nm using a SpectraMAX M5plate reader (Silicon Valley, CA, USA).

[7] = tested on: CNE2/CDDP cells; assay: Combined inhibitory effect with CDDP, MTT; assay type: cell-based; settings: co-treated with CDDP (5 µM) and compound at IC10, MTT
Procedure: Compounds regularly show synergy effects with a relatively low dosage range (IC10 to IC30). In order to preliminarily verify whether 8 compounds could increase cell sensitivity to CDDP, CNE2/CDDP cells were co-treated with CDDP (5 µM) and each compound (IC10), respectively. The cytotoxicity was evaluated by using MTT assays. […] Thus, compound 3f was selected for further experiments.
as §3, with “mM. The maximum concentrations of these 8 derivatives and CDDP used in MTT assays were set as 1 mM and 100 µM diluted with DMEM medium, respectively.” for “mM.”, “USA). […]” for “USA).”

[8] = tested on: CNE2/CDDP cells; assay: Synergistic inhibitory effect with CDDP, combination index (Chou-Talalay); assay type: cell-based; settings: treated simultaneously with 3f (20, 40, 60 µM) and CDDP (5, 10, 15 µM), 72 h; CI < 1 synergism
Procedure: To determine whether compound 3f display synergistic inhibitory effects with CDDP against CNE2/CDDP cells, an MTT assay was performed. Cells were co-treated with compound 3f and CDDP or treated with CDDP or 3f alone. There are 9 groups of the combination between 3f and CDDP (Table 2). Inhibition rates were calculated, and the fraction affected (Fa) and CI (Combination Index) were generated for each group, and dose–effect curves were obtained. The CI greater than, equal to, and less than 1.0 indicate antagonistic, additive and synergistic effects, respectively.
The combination index (CI) was evaluated using Calcusyn 2.0 based on the Chou-Talalay method. Data from cell viability assays were applied to the CI calculation.
Figure 2 Synergistic inhibitory effects of compound 3f with CDDP in CNE2/CDDP cells. CNE2/CDDP cells were cultured with 3f and/or CDDP. After 72 h, 3-(4,5-dimethyl-2-thiazolyl)-2,5-diphenyl-2-H-tetrazolium bromide (MTT) was added. Two hours later, optical density (OD) was detected, and the inhibition rate was quantified. Combination Index (CI) plots were then generated using the Chou-Talay method and Calcusyn software.

[9] = tested on: CNE2/CDDP cells; assay: Apoptosis assay (Annexin V-FITC/PI, FACS); assay type: cell-based; settings: 24 h, mean ± SD
Procedure: Subsequently, to further verify whether the synergistic effects of compound 3f with CDDP involved cell death, an apoptosis assay was conducted. CNE2/CDDP cells were co-treated with CDDP and compound 3f, or CDDP and 3f alone for 24 h. Then, cells were harvested for staining by using an apoptosis kit, following FACS detection (Figure 3a). Then, the data from three independent experiments were analyzed and the results were shown in the form of histogram (Figure 3b).
CNE2/CDDP cells (3 × 10^5) were seeded into a 6-well plate for each well. Twenty-four hours later, medium was removed and cells were treated with different compounds for […]. Then, cells were harvested, washed with cold PBS, and stained with Annexin V-FITC and PI for 15 min in dark. Finally, samples were analyzed by flow cytometer.
Figure 3 Compound 3f (40 µM) increased apoptosis rate of CDDP (4 µg/mL) in CNE2/CDDP cells. (a), representative apoptosis detection by FACS. (b), three independent experiments of apoptosis assays were analyzed and p-value was calculated. Data are represented as mean ± SD. Bar means SD value * p < 0.05, compared with CDDP; # p < 0.05, compared with 3f.

[10] = tested on: CNE2/CDDP cells; assay: Subcutaneous tumor-bearing model, CNE2/CDDP; assay type: in vivo
Procedure: (§4) Finally, to evaluate the combination inhibitory effects of compound 3f with CDDP in vivo, the subcutaneous tumor-bearing model was applied by using strain of BALB/C nude mice. In detail, 32 BALB/C nude mice without tumor were purchased and CNE2/CDDP cells (2 × 10^7) were subcutaneously injected into the right flank of each mouse to make tumor burden. Then, the 32 mice with tumor burden were divided into four groups which receive vehicle, CDDP (5 mg/kg), compound 3f (40 mg/kg), and CDDP with 3f combination treatments (5mg/kg for CDDP and 40 mg/kg for 3f), respectively, through intraperitoneal injection with two times a week for one month. […] The adverse effects of treatment were also tested by detecting serum concentration of Alanine Aminotransferase (ALT), Aspartate aminotransferase (AST), and creatinine (Cr).
The in vivo studies were conducted according to protocols approved by the Animal Ethics Committee of Guangxi University (GXU2018-019). The subcutaneous tumor-bearing model using BALB/C nude mice was applied to assess the in vivo CDDP-resistant reversal activity of compound 3f. In brief, 32 BALB/C nude mice without tumor were purchased and CNE2/CDDP cells (2 × 10^7) were subcutaneously injected into the right flank of each mouse to make tumor burden. Then, the 32 mice with tumor burden were divided into four groups which receive vehicle, CDDP (5 mg/kg), compound 3f (40 mg/kg), and CDDP with 3f combination treatments (5 mg/kg for CDDP and 40 mg/kg for 3f) (n = 8 for each group; twice a week for a month). Drugs were resolved with sterile saline–ethanol–DMSO (89:10:1, v/v/v). Sterile saline–ethanol–DMSO (89:10:1, v/v/v) was used as vehicle. Tumor volume was calculated according to the formula: V = 0.5 × L × W^2 (L: the long diameter of the tumor; W: the short diameter of the tumor). At the time of the animal sacrifice, tumors were excised and weighted.

[11] = Serum ALT, AST and Cr by ELISA; assay type: in vivo, BALB/C nude mice; settings: groups: vehicle, CDDP 5 mg/kg, 3f 40 mg/kg, combination; ELISA at sacrifice
Procedure: as §4
Mice were sacked at the time of the animal sacrifice and blood was collected to detect ALT, AST, and Cr. Immediately, serum was separated by centrifugation at 2000 g, and ALT, Cr, and AST were determined using ELISA kits (Shanghai Enzyme-linked Biotechnology Co., Ltd., catalog: ml063179, ml058577, and ml057581) according to the manufacture instructions. The absorbance of the plates was read at 450 nm using an automated microplate reader (Bio-Tek, Winooski, VT, USA).

Compound: S=C1/C(=C/c2cccs2)CC[C@@H]2[C@H]3CCCN4CCC[C@@H](CN12)[C@@H]34 [3b]
- IC50 [1]: 158 ± 11.3 µM
- IC50 [2]: 125 ± 6.3 µM
- IC50 [3]: 208 ± 9.4 µM
- IC50 [4]: 583 ± 15.3 µM
- IC50 [5]: 156 ± 11.7 µM

Compound: S=C1/C(=C/c2csc3ccccc23)CC[C@@H]2[C@H]3CCCN4CCC[C@@H](CN12)[C@@H]34 [3a]
- IC50 [1]: 113 ± 7.2 µM
- IC50 [2]: 152 ± 8.4 µM
- IC50 [3]: 179 ± 12.1 µM
- IC50 [4]: 375 ± 18.1 µM
- IC50 [5]: 212 ± 15.3 µM

Compound: Cc1ccc(/C=C2\CC[C@@H]3[C@H]4CCCN5CCC[C@@H](CN3C2=S)[C@@H]45)s1 [3d, 14-((5-methylthiophen-2-yl)methylene)thiomatrine]
- IC50 [1]: 92.4 ± 6.5 µM
- IC50 [2]: 121 ± 7.7 µM
- IC50 [3]: 138 ± 9.4 µM
- IC50 [4]: 294 ± 20.1 µM
- IC50 [5]: 138 ± 9.6 µM
- melting point: 186.2 to 187.4 °C

Compound: S=C1C(=Cc2ccc(Cl)s2)CCC2C3CCCN4CCCC(CN12)C34 (stereo not shown) [3f, 14-((5-chlorothiophen-2-yl)methylene)thiomatrine]
- IC50 [1]: 35.7 ± 3.4 µM
- IC50 [3]: 51.3 ± 3.5 µM
- IC50 [4]: 91.4 ± 8.8 µM
- IC50 [5]: 72 ± 5.8 µM
- IC50 [6]: 30 to 100 µM
- increase of the inhibitory effects of CDDP [7]: could increase the inhibitory effects of CDDP
- CI (Combination Index) [8]: less than 1
- cell apoptosis, treatment alone ([9]; CDDP 4 µg/mL or 3f 40 µM alone, three independent experiments): 9.97 ± 1.36
- cell apoptosis, combined treatment with CDDP ([9]; CDDP (4 µg/mL) and 3f (40 µM) combined): 15.53 ± 1.61
- tumor volume and weight, combined treatment with CDDP ([10]; CDDP 5 mg/kg + 3f 40 mg/kg, intraperitoneal, twice a week for one month, compared with CDDP or 3f alone): significantly reduced tumor volume and weight
- toxicity in vivo ([10]; dose of 40 mg/kg, reflected by mouse body weight and ALT, AST, Cr): no obvious toxicity
- body weight of mice ([10]; groups: vehicle, CDDP 5 mg/kg, 3f 40 mg/kg, combination, i.p. twice a week for one month): no significant difference in body weight
- serum concentrations of ALT, AST, and Cr [11]: no significant changes

Compound: S=C1/C(=C/c2ccsc2)CC[C@@H]2[C@H]3CCCN4CCC[C@@H](CN12)[C@@H]34 [3c, 14-(thiophen-3-ylmethylene)thiomatrine]
- IC50 [1]: 144 ± 10.3 µM
- IC50 [3]: 191 ± 11.3 µM
- IC50 [4]: 676 ± 23.8 µM
- IC50 [5]: 285 ± 20.7 µM
- melting point: 166.8 to 167.5 °C
